How the values were obtained:
[1] = target: T1, KCNH6 (Homo sapiens, UniProt Q9H252); assay: whole-cell patch-clamp, peak tail current in transfected HEK293 cells; assay type: cell-based
T1 construct: human KCNH6 gene in pcDNA3.1, transiently expressed in HEK293 cells
T1 sequence (Q9H252 1-958): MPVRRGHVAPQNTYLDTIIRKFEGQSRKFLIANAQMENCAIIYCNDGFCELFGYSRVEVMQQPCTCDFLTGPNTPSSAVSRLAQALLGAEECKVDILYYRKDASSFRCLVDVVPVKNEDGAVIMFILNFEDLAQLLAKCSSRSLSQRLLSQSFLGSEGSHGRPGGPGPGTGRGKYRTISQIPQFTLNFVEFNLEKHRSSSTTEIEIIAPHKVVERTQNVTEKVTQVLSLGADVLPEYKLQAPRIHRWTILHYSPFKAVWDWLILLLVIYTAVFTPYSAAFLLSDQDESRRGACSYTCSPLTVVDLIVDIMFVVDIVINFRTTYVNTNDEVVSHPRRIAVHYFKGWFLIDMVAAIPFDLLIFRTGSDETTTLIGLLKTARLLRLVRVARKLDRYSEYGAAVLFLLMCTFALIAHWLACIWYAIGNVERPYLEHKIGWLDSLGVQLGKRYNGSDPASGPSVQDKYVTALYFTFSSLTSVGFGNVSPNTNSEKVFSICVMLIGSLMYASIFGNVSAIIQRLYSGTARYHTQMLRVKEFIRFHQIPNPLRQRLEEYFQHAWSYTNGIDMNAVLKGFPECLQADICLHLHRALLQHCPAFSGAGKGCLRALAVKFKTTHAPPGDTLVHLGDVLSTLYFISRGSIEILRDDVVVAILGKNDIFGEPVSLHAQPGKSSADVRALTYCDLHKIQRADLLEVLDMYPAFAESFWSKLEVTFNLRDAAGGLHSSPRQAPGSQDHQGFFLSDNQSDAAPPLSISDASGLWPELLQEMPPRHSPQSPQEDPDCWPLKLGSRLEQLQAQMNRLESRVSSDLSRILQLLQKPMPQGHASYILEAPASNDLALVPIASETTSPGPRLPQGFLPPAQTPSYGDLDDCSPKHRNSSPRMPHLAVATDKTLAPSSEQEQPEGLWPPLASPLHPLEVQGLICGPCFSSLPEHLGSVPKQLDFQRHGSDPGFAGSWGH

[2] = target: T1, KCNH6; assay: whole-cell patch-clamp in transfected HEK293 cells (inhibitor control); assay type: cell-based

SMILES | IC50 [1] [nM] | whole-cell patch-clamp in transfected HEK293 cells (inhibitor control) [2]
COc1cc(N)c(Cl)cc1C(=O)NC1CCN(CCCOc2ccc(F)cc2)CC1OC (centres unmarked) [cisapride] | 6.04 | 
CN(CCOc1ccc(NS(C)(=O)=O)cc1)CCc1ccc(NS(C)(=O)=O)cc1 [dofetilide] |  | E4031 and dofetilide were used as inhibitor controls
